Each block holds one compound with its values, some of them ahead of it.
Key:
CIMPR = CIMPR (Homo sapiens, UniProt P11717); test: CIMPR affinity chromatography (CIMPR column, free M6P gradient); assay type: binding; settings: fraction of total enzyme by GAA activity; for rhGAA that did not bind to the CIMPR: eluted prior to addition of M6P
Experimental: To evaluate the ability of the rhGAA in Myozyme® and Lumizyme®, the only currently approved treatments for Pompe disease, these rhGAA preparations were injected onto a CIMPR column (which binds rhGAA having M6P groups) and subsequently eluted with a free […] gradient. Fractions were collected in 96-well plate and GAA activity assayed by 4MU-α-glucose substrate. The relative amounts of bound and unbound rhGAA were determined based on GAA activity and reported as the fraction of total enzyme.

[1] = Plasma miglustat pharmacokinetics, phase 1/2 study in adults with Pompe disease; assay type: in vivo, human; settings: for CL/F: arithmetic mean (CV %)
Experimental: Mean total GAA protein and miglustat PK results from the first 8 Cohort 1 patients through Visit 9 and the first 2 Cohort 3 patients were assessed.

[2] = Apparent plasma half-life in vivo
Gaa KO mice = test: Muscle function in Gaa-knockout mice, 12 biweekly administrations (grip strength, wire hang); assay type: in vivo, mouse; settings: 12 biweekly administrations, ERT 20 mg/kg (miglustat 10 mg/kg)
Description: In FIG. 18A, * indicates statistically significant compared to Lumizyme® alone (p<0.05, 2-sided t-test). In FIGS. 19A-19G, * indicates statistically significant compared to Lumizyme® alone (p<0.05, multiple comparison using Dunnett's method under one-way ANOVA analysis).

[3] = tested on: normal and Pompe fibroblast cell lines; test: Cellular uptake of rhGAA in normal and Pompe fibroblast cell lines; assay type: cell-based
Experimental: The relative cellular uptake of ATB200 and Lumizyme® rhGAA were compared using normal and Pompe fibroblast cell lines. […] After 16-hr incubation, external rhGAA was inactivated with TRIS base and cells were washed 3-times with PBS prior to harvest. Internalized GAA measured by 4MU-α-Glucoside hydrolysis and was graphed relative to total cellular protein and the results appear in FIGS. 11A-B.

Chain of CIMPR (P11717 41-2491, species assumed): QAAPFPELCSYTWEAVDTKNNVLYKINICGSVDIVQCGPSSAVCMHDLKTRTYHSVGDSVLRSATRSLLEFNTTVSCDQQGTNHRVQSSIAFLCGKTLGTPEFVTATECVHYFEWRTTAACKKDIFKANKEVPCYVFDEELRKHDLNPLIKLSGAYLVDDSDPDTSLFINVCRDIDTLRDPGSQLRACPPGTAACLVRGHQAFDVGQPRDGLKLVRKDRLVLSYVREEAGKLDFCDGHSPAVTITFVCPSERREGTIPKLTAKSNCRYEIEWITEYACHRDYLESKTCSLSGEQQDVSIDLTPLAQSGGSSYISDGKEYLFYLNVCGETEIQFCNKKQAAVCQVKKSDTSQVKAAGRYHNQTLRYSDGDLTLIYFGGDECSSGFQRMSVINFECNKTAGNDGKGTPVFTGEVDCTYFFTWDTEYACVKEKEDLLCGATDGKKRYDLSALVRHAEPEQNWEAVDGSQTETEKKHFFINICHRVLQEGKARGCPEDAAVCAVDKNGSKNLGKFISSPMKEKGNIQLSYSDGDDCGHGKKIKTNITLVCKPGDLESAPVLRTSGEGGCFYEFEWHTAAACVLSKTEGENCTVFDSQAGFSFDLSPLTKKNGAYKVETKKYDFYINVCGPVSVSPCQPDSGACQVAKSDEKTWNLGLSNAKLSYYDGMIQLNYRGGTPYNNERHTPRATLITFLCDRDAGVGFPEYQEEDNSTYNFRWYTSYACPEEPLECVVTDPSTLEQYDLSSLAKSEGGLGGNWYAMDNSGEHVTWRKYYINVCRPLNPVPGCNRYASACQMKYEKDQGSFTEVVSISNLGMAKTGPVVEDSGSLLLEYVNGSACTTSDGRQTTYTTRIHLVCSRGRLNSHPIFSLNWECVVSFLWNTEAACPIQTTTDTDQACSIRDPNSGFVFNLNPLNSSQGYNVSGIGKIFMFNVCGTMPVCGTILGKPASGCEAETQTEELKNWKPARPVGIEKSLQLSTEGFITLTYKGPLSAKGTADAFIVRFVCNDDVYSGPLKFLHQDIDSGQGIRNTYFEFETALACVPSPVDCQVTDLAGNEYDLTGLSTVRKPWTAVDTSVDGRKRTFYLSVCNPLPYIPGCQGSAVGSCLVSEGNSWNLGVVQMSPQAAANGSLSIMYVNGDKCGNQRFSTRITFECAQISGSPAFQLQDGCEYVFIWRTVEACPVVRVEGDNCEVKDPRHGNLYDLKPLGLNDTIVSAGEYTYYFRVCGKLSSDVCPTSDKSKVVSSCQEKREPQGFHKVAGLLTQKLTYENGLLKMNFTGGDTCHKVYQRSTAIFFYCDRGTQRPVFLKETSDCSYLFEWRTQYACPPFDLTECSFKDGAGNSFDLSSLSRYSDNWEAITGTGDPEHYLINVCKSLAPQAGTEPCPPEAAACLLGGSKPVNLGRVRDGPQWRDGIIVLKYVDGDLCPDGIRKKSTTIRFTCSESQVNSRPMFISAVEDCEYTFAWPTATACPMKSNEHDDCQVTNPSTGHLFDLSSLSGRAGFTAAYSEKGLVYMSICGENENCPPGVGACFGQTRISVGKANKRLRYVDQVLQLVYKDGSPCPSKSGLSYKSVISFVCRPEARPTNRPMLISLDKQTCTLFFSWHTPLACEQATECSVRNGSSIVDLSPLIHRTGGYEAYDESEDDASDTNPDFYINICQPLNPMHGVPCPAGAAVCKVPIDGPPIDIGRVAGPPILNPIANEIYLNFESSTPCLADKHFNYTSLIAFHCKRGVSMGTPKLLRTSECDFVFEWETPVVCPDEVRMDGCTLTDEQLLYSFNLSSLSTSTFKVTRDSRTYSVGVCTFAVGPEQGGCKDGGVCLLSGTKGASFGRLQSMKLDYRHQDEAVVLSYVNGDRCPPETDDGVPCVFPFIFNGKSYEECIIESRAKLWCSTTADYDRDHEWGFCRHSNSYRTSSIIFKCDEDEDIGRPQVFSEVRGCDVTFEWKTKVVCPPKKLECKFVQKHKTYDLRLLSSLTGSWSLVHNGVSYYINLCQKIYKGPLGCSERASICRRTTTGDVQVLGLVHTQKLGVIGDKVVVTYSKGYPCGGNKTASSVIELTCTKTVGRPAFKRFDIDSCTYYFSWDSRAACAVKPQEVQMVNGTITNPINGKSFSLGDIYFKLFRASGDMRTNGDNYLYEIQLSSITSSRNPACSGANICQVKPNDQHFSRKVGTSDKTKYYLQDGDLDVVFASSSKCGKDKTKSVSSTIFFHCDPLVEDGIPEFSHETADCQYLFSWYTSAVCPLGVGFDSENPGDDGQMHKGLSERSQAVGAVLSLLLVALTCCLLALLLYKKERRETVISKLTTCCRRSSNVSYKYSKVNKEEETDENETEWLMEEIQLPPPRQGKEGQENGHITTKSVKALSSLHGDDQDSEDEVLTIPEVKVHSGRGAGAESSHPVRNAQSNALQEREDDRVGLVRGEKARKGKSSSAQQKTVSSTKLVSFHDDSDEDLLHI

- rhGAA that contained M6P / bound CIMPR (eluted with M6P) (CIMPR): 27%
- rhGAA that did not bind to the CIMPR (CIMPR): 73%
Compound: Myozyme®: conventional rhGAA product containing alglucosidase alfa, Genzyme

- plasma miglustat kinetics ([1]; 130 mg and 260 mg oral): dose-proportional kinetics
- CL/F ([1]; High MD): 10.3 (26.4) L/h
- CL/F ([1]; High SD): 10.6 (33) L/h
- CL/F ([1]; Low MD): 10.2 (23.9) L/h
- CL/F ([1]; Low SD): 10.6 (23) L/h
Compound: CCCCN1C[C@H](O)[C@@H](O)[C@H](O)[C@H]1CO [Miglustat, miglustat]

Compound: [199-arginine,223-histidine]prepro-α-glucosidase (human) [alglucosidase alfa, reference compound]
- apparent plasma half-life (t1/2) [2]: ~1 h

- rhGAA that contained M6P / bound CIMPR (eluted with M6P) (CIMPR): 22%
- rhGAA that did not bind to the CIMPR (CIMPR): 78%
Compound: Lumizyme®: conventional rhGAA product containing alglucosidase alfa, Genzyme
- functional muscle strength (grip strength and wire hang tests) (Gaa KO mice): observed to decline under identical conditions throughout most of the study
- concentration that saturates cellular receptors ([3]; 16-hr incubation): about 250 nM
- uptake efficiency constant (Kuptake) ([3]; extrapolated, FIG. 11C): 56 nM

Source: patent publication US10512676B2, “Formulations comprising recombinant acid alpha-glucosidase” (Amicus Therapeutics, Inc., priority 2016, dated 2019)
